In ChEMBL document CHEMBL4364295, “Discovery of a First-in-Class Receptor Interacting Protein 2 (RIP2) Kinase Specific Clinical Candidate, 2-((4-(Benzo[d]thiazol-5-ylamino)-6-(tert-butylsulfonyl)quinazolin-7-yl)oxy)ethyl Dihydrogen Phosphate, for the Treatment of Inflammatory Diseases” (J Med Chem, 2019):
Values belong to the compound of their own block, whether it stands above or below them.

Experiments:
[1] = AUC in Sprague-Dawley rat assessed as 2-((4-(Benzo[d]thiazol-5-ylamino)-6-(tert-butylsulfonyl)quinazolin-7-yl)oxy)ethanol level at 2 mg/kg, po by LC/MS/MS analysis; format: ADME, organism-based; conditions: in vivo
[2] = Drug uptake in po dosed Sprague-Dawley rat systemic circulation by LC/MS/MS analysis; format: ADME, organism-based; conditions: in vivo
[3] = biological target: Voltage-gated inwardly rectifying potassium channel KCNH2 (Homo sapiens, UniProt Q12809); assay: Inhibition of human ERG (1159 residues) expressed in CHOK1 cells at -80 mV holding potential measured after 5 mins by QPatch electrophysiology method; format: cell-based
[4] = AUC in Beagle dog assessed as 2-((4-(Benzo[d]thiazol-5-ylamino)-6-(tert-butylsulfonyl)quinazolin-7-yl)oxy)ethanol level at 2 mg/kg, po by LC/MS/MS analysis; format: ADME, organism-based, Canis lupus familiaris; conditions: in vivo
[5] = Half life in human blood; format: ADME, tissue-based
[6] = Prodrug conversion in Sprague-Dawley rat gut assessed as 2-((4-(Benzo[d]thiazol-5-ylamino)-6-(tert-butylsulfonyl)quinazolin-7-yl)oxy)ethanol formation at 2 mg/kg, po or 0.5 mg/kg, iv measured at 15 to 120 mins post dose; format: ADME, organism-based; conditions: in vivo
[7] = Solubility of the compound in FaSSIF measured after 4 hrs using hemi-calcium salt form of compound; format: physicochemical
[8] = Prodrug conversion in Han Wistar rat skin assessed as 2-((4-(Benzo[d]thiazol-5-ylamino)-6-(tert-butylsulfonyl)quinazolin-7-yl)oxy)ethanol formation at 2 mg/kg, iv administered as infusion for 4 hrs; format: ADME, organism-based, Zone of skin; conditions: in vivo
[9] = Prodrug conversion in Han Wistar rat brain assessed as 2-((4-(Benzo[d]thiazol-5-ylamino)-6-(tert-butylsulfonyl)quinazolin-7-yl)oxy)ethanol formation at 2 mg/kg, iv administered as infusion for 4 hrs; format: ADME, organism-based; conditions: in vivo
[10] = Prodrug conversion in Han Wistar rat eye assessed as 2-((4-(Benzo[d]thiazol-5-ylamino)-6-(tert-butylsulfonyl)quinazolin-7-yl)oxy)ethanol formation at 2 mg/kg, iv administered as infusion for 4 hrs; format: ADME, organism-based; conditions: in vivo
[11] = Drug uptake in Han Wistar rat colon at 2 mg/kg, iv administered as infusion for 4 hrs; format: ADME, organism-based; conditions: in vivo
[12] = Drug uptake in Han Wistar rat eye at 2 mg/kg, iv administered as infusion for 4 hrs; format: ADME, organism-based; conditions: in vivo
[13] = Prodrug conversion in minipig hepatocytes assessed as 2-(4-(benzo[d]thiazol-5-ylamino)-6-(tert-butylsulfonyl)-1,2,3,4-tetrahydroquinazolin-7-yloxy)ethanol formation at 20 uM measured after 4 hrs; format: ADME, cell-based, Sus scrofa, Hepatocyte; conditions: pig
[14] = Prodrug conversion in minipig hepatocytes assessed as 2-((4-(Benzo[d]thiazol-5-ylamino)-6-(tert-butylsulfonyl)quinazolin-7-yl)oxy)ethanol formation at 20 uM measured after 4 hrs; format: ADME, cell-based, Sus scrofa, Hepatocyte; conditions: pig
[15] = Prodrug conversion in human hepatocytes assessed as 2-(4-(benzo[d]thiazol-5-ylamino)-6-(tert-butylsulfonyl)-1,2,3,4-tetrahydroquinazolin-7-yloxy)ethanol formation at 20 uM measured after 4 hrs; format: ADME, cell-based, Hepatocyte
[16] = Prodrug conversion in Sprague-Dawley rat stomach assessed as 2-((4-(Benzo[d]thiazol-5-ylamino)-6-(tert-butylsulfonyl)quinazolin-7-yl)oxy)ethanol formation at 2 mg/kg, po or 0.5 mg/kg, iv measured at 15 to 120 mins post dose; format: ADME, organism-based; conditions: in vivo
[17] = Toxicity in Sprague-Dawley rat during 6 week study; conditions: in vivo, 1008 h
[18] = biological target: Tyrosine-protein kinase ABL2 (Homo sapiens) (UniProt P42684); assay: Inhibition of human ABL2 at 1 uM using EAIYAAPFAKKK as substrate in presence of [gamma-33P]ATP relative to control
[19] = Cmax in Sprague-Dawley rat at 2 mg/kg, po by LC/MS/MS analysis; format: ADME, organism-based; design: dose 2 mg/kg, route oral; conditions: in vivo
[20] = Oral bioavailability in Beagle dog at 2 mg/kg by LC/MS/MS analysis; format: ADME, organism-based, Canis lupus familiaris; conditions: in vivo
[21] = Volume of distribution at steady state in Gottingen minipig at 1 mg/kg, po or 0.4 mg/kg, iv by LC/MS/MS analysis; format: ADME, organism-based, Sus scrofa; conditions: pig, in vivo, read-out: Vdss
[22] = AUC in Sprague-Dawley rat at 200 mg/kg, po using crystalline sample during 7 day dose ranging study by LC/MS/MS analysis; format: ADME, organism-based; conditions: in vivo
[23] = Dose normalized AUC in Sprague-Dawley rat at 20 mg/kg, po using crystalline sample during 7 day dose ranging study by LC/MS/MS analysis; format: ADME, organism-based; conditions: in vivo, 168 h
[24] = Dose normalized AUC in Sprague-Dawley rat at 60 mg/kg, po using crystalline sample during 7 day dose ranging study by LC/MS/MS analysis; format: ADME, organism-based; conditions: in vivo, 168 h
Toll-like receptor 9 = biological target: T1, Toll-like receptor 9 (Homo sapiens, UniProt Q9NR96); assay: Inhibition of TLR9 in human monocytes assessed as reduction in CpG-ODN-induced IL8 production; format: cell-based
T1 sequence (Q9NR96 whole entry): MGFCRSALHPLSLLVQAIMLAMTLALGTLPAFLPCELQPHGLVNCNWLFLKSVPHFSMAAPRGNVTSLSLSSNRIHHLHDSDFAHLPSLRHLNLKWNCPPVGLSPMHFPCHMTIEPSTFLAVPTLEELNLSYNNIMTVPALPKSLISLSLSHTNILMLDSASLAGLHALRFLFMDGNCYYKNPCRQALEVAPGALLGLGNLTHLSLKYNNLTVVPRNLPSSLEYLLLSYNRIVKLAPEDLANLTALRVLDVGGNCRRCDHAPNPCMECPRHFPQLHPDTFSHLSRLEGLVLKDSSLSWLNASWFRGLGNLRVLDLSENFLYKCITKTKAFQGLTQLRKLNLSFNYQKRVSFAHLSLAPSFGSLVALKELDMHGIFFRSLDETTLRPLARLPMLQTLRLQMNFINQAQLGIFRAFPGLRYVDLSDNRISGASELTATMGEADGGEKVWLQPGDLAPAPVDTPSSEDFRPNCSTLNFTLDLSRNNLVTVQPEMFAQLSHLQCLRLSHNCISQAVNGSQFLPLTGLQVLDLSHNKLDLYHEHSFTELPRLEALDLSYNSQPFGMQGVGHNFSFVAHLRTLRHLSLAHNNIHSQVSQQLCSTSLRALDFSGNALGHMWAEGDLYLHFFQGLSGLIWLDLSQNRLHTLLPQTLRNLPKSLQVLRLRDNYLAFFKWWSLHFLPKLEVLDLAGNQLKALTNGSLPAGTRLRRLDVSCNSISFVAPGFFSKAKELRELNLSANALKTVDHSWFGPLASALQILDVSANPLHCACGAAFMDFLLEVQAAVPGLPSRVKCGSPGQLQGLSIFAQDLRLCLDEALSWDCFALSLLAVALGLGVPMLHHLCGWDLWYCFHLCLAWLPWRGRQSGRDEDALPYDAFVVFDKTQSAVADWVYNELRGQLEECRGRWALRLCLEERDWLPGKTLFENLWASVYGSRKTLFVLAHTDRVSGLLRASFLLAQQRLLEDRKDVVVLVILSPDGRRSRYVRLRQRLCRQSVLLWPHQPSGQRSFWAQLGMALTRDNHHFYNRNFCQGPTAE

[25] = Unbound fraction in rat blood; format: ADME, tissue-based
[26] = Unbound fraction in dog blood; format: ADME, tissue-based, Canis lupus familiaris
[27] = Unbound fraction in minipig blood; format: ADME, tissue-based, Sus scrofa; conditions: pig
[28] = Clearance in rat hepatocytes; format: ADME, cell-based, Hepatocyte

Sequence of Voltage-gated inwardly rectifying potassium channel KCNH2 (Q12809 whole entry): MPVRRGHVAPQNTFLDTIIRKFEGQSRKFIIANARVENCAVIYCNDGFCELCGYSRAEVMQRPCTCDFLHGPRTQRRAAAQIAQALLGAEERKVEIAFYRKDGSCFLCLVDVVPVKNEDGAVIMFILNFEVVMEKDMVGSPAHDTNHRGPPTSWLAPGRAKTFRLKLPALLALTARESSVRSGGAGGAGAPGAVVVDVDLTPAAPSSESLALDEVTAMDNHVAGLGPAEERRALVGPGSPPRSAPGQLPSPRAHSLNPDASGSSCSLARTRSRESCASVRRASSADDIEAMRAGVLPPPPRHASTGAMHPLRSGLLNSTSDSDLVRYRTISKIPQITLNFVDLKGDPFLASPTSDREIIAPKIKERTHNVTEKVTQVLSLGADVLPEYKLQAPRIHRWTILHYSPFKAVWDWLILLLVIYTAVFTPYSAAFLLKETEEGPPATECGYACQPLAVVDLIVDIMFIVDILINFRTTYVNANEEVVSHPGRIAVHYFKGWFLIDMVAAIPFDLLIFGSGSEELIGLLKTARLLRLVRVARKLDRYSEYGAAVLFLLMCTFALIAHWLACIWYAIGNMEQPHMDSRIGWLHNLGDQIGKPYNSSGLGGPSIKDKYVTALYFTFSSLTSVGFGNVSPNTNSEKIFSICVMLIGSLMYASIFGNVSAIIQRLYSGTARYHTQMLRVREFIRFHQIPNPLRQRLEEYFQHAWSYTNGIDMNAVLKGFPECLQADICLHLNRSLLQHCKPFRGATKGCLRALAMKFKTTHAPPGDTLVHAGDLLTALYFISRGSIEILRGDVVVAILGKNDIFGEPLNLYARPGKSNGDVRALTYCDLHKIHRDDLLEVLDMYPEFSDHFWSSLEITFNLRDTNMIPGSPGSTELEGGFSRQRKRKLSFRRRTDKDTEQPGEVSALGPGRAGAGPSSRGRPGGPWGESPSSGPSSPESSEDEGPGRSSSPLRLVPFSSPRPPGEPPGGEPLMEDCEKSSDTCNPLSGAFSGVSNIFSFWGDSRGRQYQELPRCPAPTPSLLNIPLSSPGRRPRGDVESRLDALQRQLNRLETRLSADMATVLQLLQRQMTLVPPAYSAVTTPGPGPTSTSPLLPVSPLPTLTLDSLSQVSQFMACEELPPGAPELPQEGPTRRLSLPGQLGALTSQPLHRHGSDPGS
Sequence of Tyrosine-protein kinase ABL2 (Homo sapiens) (P42684 whole entry): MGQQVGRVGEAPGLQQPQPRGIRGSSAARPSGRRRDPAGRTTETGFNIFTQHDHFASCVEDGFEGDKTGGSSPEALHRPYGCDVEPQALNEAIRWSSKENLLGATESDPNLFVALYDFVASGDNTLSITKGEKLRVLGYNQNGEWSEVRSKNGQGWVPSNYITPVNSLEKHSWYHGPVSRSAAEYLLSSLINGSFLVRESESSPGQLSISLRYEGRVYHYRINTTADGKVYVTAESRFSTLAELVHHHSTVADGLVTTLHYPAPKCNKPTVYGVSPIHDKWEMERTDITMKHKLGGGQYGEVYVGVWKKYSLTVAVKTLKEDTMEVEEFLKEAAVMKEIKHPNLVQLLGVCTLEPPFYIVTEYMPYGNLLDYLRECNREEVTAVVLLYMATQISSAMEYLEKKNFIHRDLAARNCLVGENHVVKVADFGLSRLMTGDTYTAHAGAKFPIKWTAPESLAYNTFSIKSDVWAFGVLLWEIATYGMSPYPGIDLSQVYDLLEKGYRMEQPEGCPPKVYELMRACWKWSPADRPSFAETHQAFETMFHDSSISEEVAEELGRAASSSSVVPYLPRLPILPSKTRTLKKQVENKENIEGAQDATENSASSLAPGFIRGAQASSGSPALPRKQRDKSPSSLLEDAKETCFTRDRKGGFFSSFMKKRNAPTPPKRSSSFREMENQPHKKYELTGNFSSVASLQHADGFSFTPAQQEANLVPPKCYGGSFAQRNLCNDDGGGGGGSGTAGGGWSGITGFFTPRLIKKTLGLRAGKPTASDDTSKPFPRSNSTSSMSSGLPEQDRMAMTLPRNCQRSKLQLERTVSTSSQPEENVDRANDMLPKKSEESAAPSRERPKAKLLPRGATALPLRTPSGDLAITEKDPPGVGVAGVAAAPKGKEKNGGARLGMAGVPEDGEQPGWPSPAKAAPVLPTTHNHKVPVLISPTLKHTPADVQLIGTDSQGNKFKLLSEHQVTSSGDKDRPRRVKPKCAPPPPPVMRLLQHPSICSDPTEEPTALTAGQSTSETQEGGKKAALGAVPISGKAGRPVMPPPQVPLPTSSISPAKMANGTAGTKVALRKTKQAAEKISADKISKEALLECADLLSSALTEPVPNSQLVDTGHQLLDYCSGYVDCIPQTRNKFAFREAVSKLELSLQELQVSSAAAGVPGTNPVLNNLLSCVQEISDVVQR

AUC [1]: 580 ng·h/mL
Drug uptake [2]: Not Active
AUC [4]: 4400 ng·h/mL
half-life [5]: 25 min
Drug metabolism [6]: Metabolite_Detected
solubility at 4 h [7]: 130 µg/mL
Drug metabolism [8]: Metabolite_Detected
Drug metabolism [9]: Metabolite_Detected
Drug metabolism [10]: Metabolite_Detected
Drug uptake [11]: Not Active
Drug uptake [12]: Not Active
Drug metabolism [13]: Metabolite_Detected
Drug metabolism [14]: Metabolite_Detected
Drug metabolism [15]: Metabolite_Detected
Drug metabolism [16]: Metabolite_Detected
Compound: CC(C)(C)S(=O)(=O)c1cc2c(Nc3ccc4scnc4c3)ncnc2cc1OCCOP(=O)(O)O.[CaH2]
IC50 [3]: > 30 µM
Activity [17]: Non-Toxic

inhibition [18]: 70 to 90%
Cmax [19]: 120 ng/mL
bioavailability [20]: 57%
Vd [21]: 1.8 L/kg
AUC at 168 h [22]: 41400 ng·h/mL
AUC/dose [23]: 0.44 kg·h/L
AUC/dose [24]: 0.39 kg·h/L
AUC [1]: 460 ng·h/mL
Drug uptake [2]: Not Active
IC50 (Toll-like receptor 9): > 10 µM
fraction unbound [25]: 0.11
fraction unbound [26]: 0.089
fraction unbound [27]: 0.068
CLH [28]: < 0.48 mL/min/g
Compound: CC(C)(C)S(=O)(=O)c1cc2c(Nc3ccc4scnc4c3)ncnc2cc1OCCO
IC50 [3]: > 30 µM
